Measured values: PMC3003444 (Chemistry & biology, 2010)
≈ marks a conversion by molar mass, not a printed value. Where two headings read alike, the source gives them in different places. Marks after values point to notes of the source that are not given here.

Key:
[1] = tested on: Corynebacterium efficiens; experiment: microbe, parasite or virus in culture; type: cell-based
[2] = tested on: Escherichia coli; experiment: microbe, parasite or virus in culture; type: cell-based
[3] = tested on: Klebsiella pneumoniae; experiment: microbe, parasite or virus in culture; type: cell-based
[4] = tested on: Brevibacillus brevis; experiment: microbe, parasite or virus in culture; type: cell-based
[5] = tested on: Pseudomonas aeruginosa; experiment: microbe, parasite or virus in culture; type: cell-based
[6] = tested on: Enterococcus faecalis; details: cited from earlier work
[7] = tested on: Lactobacillus acidophilus; experiment: microbe, parasite or virus in culture; type: cell-based
[8] = tested on: Lactococcus lactis; type: cell-based
[9] = tested on: Streptococcus pyogenes; experiment: microbe, parasite or virus in culture; type: cell-based
[10] = tested on: Lactobacillus gasseri; experiment: microbe, parasite or virus in culture; type: cell-based
[11] = tested on: Corynebacterium glutamicum; experiment: microbe, parasite or virus in culture; type: cell-based
[12] = tested on: Staphylococcus aureus; type: cell-based; details: S. aureus mutant, Pro^29 replaced by Ser
[13] = tested on: Lactobacillus plantarum; experiment: microbe, parasite or virus in culture; type: cell-based; details: Lactiplantibacillus plantarum
[14] = tested on: Bacillus subtilis; experiment: microbe, parasite or virus in culture; type: cell-based
[15] = tested on: Helicobacter pylori; experiment: microbe, parasite or virus in culture; type: cell-based
[16] = tested on: Yersinia pestis; experiment: microbe, parasite or virus in culture; type: cell-based
[17] = tested on: E. coli strains harboring the indicated amino acid at SPase residue 84
[18] = tested on: Staphylococcus epidermidis; experiment: microbe, parasite or virus in culture; type: cell-based
[19] = tested on: Bacteroides fragilis; experiment: microbe, parasite or virus in culture; type: cell-based
[20] = tested on: Streptococcus pneumoniae; experiment: microbe, parasite or virus in culture; type: cell-based
[21] = tested on: Clostridia and Bacteriodetes; experiment: MIC, Clostridia and Bacteriodetes; type: cell-based
[22] = tested on: Clostridium bolteae; experiment: microbe, parasite or virus in culture; type: cell-based; details: Enterocloster bolteae
[23] = tested on: E. coli strains harboring the indicated amino acid at SPase residue 84; experiment: MIC for E. coli strains with mutant SPase residue 84; details: for MIC: Escherichia coli
[24] = tested on: Staphylococcus haemolyticus; experiment: microbe, parasite or virus in culture; type: cell-based
[25] = tested on: Lactobacillales; experiment: organism not typed; type: cell-based
[26] = tested on: Chlamydia trachomatis; experiment: microbe, parasite or virus in culture; type: cell-based
[27] = tested on: Prevotella copris; experiment: microbe, parasite or virus in culture; type: cell-based
[28] = tested on: Clostridium perfringens; experiment: microbe, parasite or virus in culture; type: cell-based
[29] = tested on: Clostridium difficile; experiment: microbe, parasite or virus in culture; type: cell-based; details: Clostridioides difficile
[30] = tested on: Rhodococcus opacus; experiment: microbe, parasite or virus in culture; type: cell-based
[31] = tested on: Streptococcus agalactiae; experiment: microbe, parasite or virus in culture; type: cell-based

CCCCCCCCCCCCCCCC(=O)N(C)[C@H](CO)C(=O)N[C@H](C)C(=O)NCC(=O)N(C)[C@@H]1C(=O)N[C@@H](C)C(=O)N[C@H](C(=O)O)Cc2ccc(O)c(c2)-c2cc1ccc2O [arylomycin C16]
MIC [1]: > 64 µg/mL | MIC [2]: > 128 µg/mL | MIC [3]: > 128 µg/mL | MIC [4]: > 64 µg/mL | decrease of MIC on permeabilizing with polymyxin B nonapeptide ([5]; P. aeruginosa Pro to Ser mutant): ≤ 4 fold | sensitivity of Pro to Ser SPase mutant strain ([5]; P. aeruginosa mutant, Pro^84 replaced by Ser): high degree of sensitivity | MIC ([5]; Pseudomonas aeruginosa): > 128 µg/mL | MIC [6]: >64 ^b μg/ml | MIC [7]: > 128 µg/mL | MIC [8]: 16, >128 ^a μg/ml | MIC [9]: 16 µg/mL (≈ 18.2 µM) | MIC [10]: > 128 µg/mL | MIC [11]: 2 µg/mL (≈ 2.27 µM) | sensitivity of Pro to Ser SPase mutant strain [12]: high degree of sensitivity | MIC [13]: > 128 µg/mL | MIC [14]: > 128 µg/mL | MIC [15]: 4 µg/mL (≈ 4.54 µM) | MIC [16]: 4 µg/mL (≈ 4.54 µM) | decrease of MIC on permeabilizing with polymyxin B nonapeptide [17]: ≤ 4 fold | MIC ([18]; Staphylococcus epidermidis): 0.25 µg/mL (≈ 0.284 µM) | elevated MIC compared to the wild type strain ([18]; resistant mutants (remainder), SpsIB Ser to Pro at position 31): greater than 256 fold | elevated MIC compared to the wild type strain ([18]; resistant mutants (~75%), SpsIB Ser to Pro at position 29): 32 fold | MIC [19]: > 16 µg/mL | MIC [20]: 16 µg/mL (≈ 18.2 µM) | MIC [21]: > 16 µg/mL | MIC [22]: > 16 µg/mL | sensitivity of Pro to Ser SPase mutant strain ([23]; E. coli mutant, Pro^84 replaced by Ser): high degree of sensitivity | MIC ([23]; His at SPase residue 84 (temperature sensitive phenotype)): 4 µg/mL (≈ 4.54 µM) | MIC ([23]; Phe at SPase residue 84 (temperature sensitive phenotype)): 2 µg/mL (≈ 2.27 µM) | MIC ([23]; Pro at SPase residue 84, detection limit 256 μg/ml): > 256 µg/mL | MIC ([23]; read-out: MICs, all of the other amino acids (not Pro) at SPase residue 84): ≤ 16 µg/mL | MIC [24]: 2 µg/mL (≈ 2.27 µM) | MIC [25]: > 64 µg/mL | MIC [26]: 6 µg/mL (≈ 6.81 µM) | MIC [27]: > 16 µg/mL | MIC [28]: > 16 µg/mL | MIC [29]: > 16 µg/mL | MIC [30]: 2 µg/mL (≈ 2.27 µM) | MIC [31]: > 128 µg/mL
